The nature of series [1]: Cytotoxicity against BALB/c mouse T cell assessed as reduction in cell viability after 48 hrs by CCK8 assay. In kind it is tissue-based, T cell line. The settings on record: BALB/c mouse T cells.
Series [2] in a line: Antiproliferative activity against Con A-induced BALB/c mouse T cell after 48 hrs by CCK8 assay. In kind it is functional, tissue-based, T cell line.
Series [3] is described as follows: Selectivity index, ratio of CC50 for cytotoxicity against BALB/c mouse T cell to IC50 for antiproliferative activity against Con A-induced BALB/c mouse T cell. Set-up: species or system T cell line.

pIC50: −log10 of the molar value.

As for `CCNC(=O)[C@]1(C)CC[C@]2(C)CC[C@]3(C)C4=CC=C5C(=CC(=O)C(O)=C5C)[C@]4(C)CC[C@@]3(C)[C@@H]2C1`, in series [1], the CC50 – broadly, the concentration that lowers cell viability or growth by half – at 48 h was determined as 1.1 µM. Further, the pIC50 (commonly the negative decadic logarithm of the IC50, by convention in mol/L) in series [2] is 7.51. For the same compound, the “Ratio CC50/IC50” value in series [3] is given as 34.6.

For the compound `C#CCOC(=O)[C@]1(C)CC[C@]2(C)CC[C@]3(C)C4=CC=C5C(=CC(=O)C(O)=C5C)[C@]4(C)CC[C@@]3(C)[C@@H]2C1`, in series [1], the CC50 at 48 h stood at 1.4 µM. In series [2], the pIC50 was 5.95. The “Ratio CC50/IC50” value in series [3] is listed as 1.3.

Take `CC1=C(O)C(=O)C=C2C1=CC=C1[C@@]2(C)CC[C@@]2(C)[C@@H]3C[C@](C)(C(=O)OCCCl)CC[C@]3(C)CC[C@]12C`: in series [1], the CC50 at 48 h turned out to be 1.1 µM. For the same compound, in series [2], the pIC50 is 6.11. The “Ratio CC50/IC50” value in series [3] was found to be 1.4.

Consider `COCCOC(=O)[C@]1(C)CC[C@]2(C)CC[C@]3(C)C4=CC=C5C(=CC(=O)C(O)=C5C)[C@]4(C)CC[C@@]3(C)[C@@H]2C1`, for which the CC50 at 48 h in series [1] worked out at 1.3 µM. In addition, in series [2], the pIC50 is 6.34. In series [3], the “Ratio CC50/IC50” value was found to be 2.8.

As for `COC(=O)[C@H](Cc1ccc(O)cc1)NC(=O)[C@]1(C)CC[C@]2(C)CC[C@]3(C)C4=CC=C5C(=CC(=O)C(O)=C5C)[C@]4(C)CC[C@@]3(C)[C@@H]2C1`, the CC50 at 48 h in series [1] is 1.4 µM. This compound also had a pIC50 in series [2] of 6.69. The “Ratio CC50/IC50” value in series [3] came to 6.9.

On to `CC1=C(O)C(=O)C=C2C1=CC=C1[C@@]2(C)CC[C@@]2(C)[C@@H]3C[C@](C)(C(=O)OCc4ccccc4Br)CC[C@]3(C)CC[C@]12C`, for which the half-maximal cytotoxic concentration (CC50) at 48 h in series [1] was found to be 1.8 µM. The compound also showed a pIC50 in series [2] of 5.81. Besides, the “Ratio CC50/IC50” value in series [3] stood at 1.1.

In the case of `CC1=C(O)C(=O)C=C2C1=CC=C1[C@@]2(C)CC[C@@]2(C)[C@@H]3C[C@](C)(C(=O)OCc4ccc(F)cc4)CC[C@]3(C)CC[C@]12C`, the CC50 at 48 h in series [1] was 2 µM. For the same compound, the pIC50 in series [2] is 5.84. In addition, the “Ratio CC50/IC50” value in series [3] is recorded as 1.4.

Consider `CC1=C(O)C(=O)C=C2C1=CC=C1[C@@]2(C)CC[C@@]2(C)[C@@H]3C[C@](C)(C(=O)OCc4ccccc4C)CC[C@]3(C)CC[C@]12C`, for which the CC50 at 48 h in series [1] amounted to 1.7 µM. Moreover, the pIC50 in series [2] is 5.98. Moreover, the “Ratio CC50/IC50” value in series [3] stood at 1.6.

`CC1=C(O)C(=O)C=C2C1=CC=C1[C@@]2(C)CC[C@@]2(C)[C@@H]3C[C@](C)(C(=O)NCCN(C)C)CC[C@]3(C)CC[C@]12C`: in series [1], the CC50 at 48 h came out at 1.2 µM. This compound also showed a negative-log IC50 (pIC50) in series [2] of 6.65. In addition, in series [3], the “Ratio CC50/IC50” value is listed as 5.5.

Consider `CCCOC(=O)[C@]1(C)CC[C@]2(C)CC[C@]3(C)C4=CC=C5C(=CC(=O)C(O)=C5C)[C@]4(C)CC[C@@]3(C)[C@@H]2C1`, for which the half-maximal cytotoxic concentration (CC50) at 48 h in series [1] was 1.2 µM. The compound also had a pIC50 in series [2] of 6.03. In series [3], the “Ratio CC50/IC50” value was determined as 1.3.

Turning to `CC1=C(O)C(=O)C=C2C1=CC=C1[C@@]2(C)CC[C@@]2(C)[C@@H]3C[C@](C)(C(=O)NCc4ccccc4C)CC[C@]3(C)CC[C@]12C`, the CC50 at 48 h in series [1] is 1.1 µM. The same compound gave a pIC50 in series [2] of 6.51. Moreover, the “Ratio CC50/IC50” value in series [3] is given as 3.6.

`CC1=C(O)C(=O)C=C2C1=CC=C1[C@@]2(C)CC[C@@]2(C)[C@@H]3C[C@](C)(C(=O)OCCC(C)C)CC[C@]3(C)CC[C@]12C`: the CC50 at 48 h in series [1] was 1.5 µM. The compound further gave a pIC50 in series [2] of 5.96. Besides, in series [3], the “Ratio CC50/IC50” value is listed as 1.4.

For the compound `C=CCOC(=O)[C@]1(C)CC[C@]2(C)CC[C@]3(C)C4=CC=C5C(=CC(=O)C(O)=C5C)[C@]4(C)CC[C@@]3(C)[C@@H]2C1`, in series [1], the CC50 at 48 h was 1.3 µM. The pIC50 in series [2] is 5.93. Besides, in series [3], the “Ratio CC50/IC50” value was found to be 1.1.

With `COCCCOC(=O)[C@]1(C)CC[C@]2(C)CC[C@]3(C)C4=CC=C5C(=CC(=O)C(O)=C5C)[C@]4(C)CC[C@@]3(C)[C@@H]2C1`, in series [1], the CC50 at 48 h turned out to be 1.7 µM. Besides, the negative-log IC50 (pIC50) in series [2] was 6.00. In addition, in series [3], the “Ratio CC50/IC50” value was 1.7.

For `CC1=C(O)C(=O)C=C2C1=CC=C1[C@@]2(C)CC[C@@]2(C)[C@@H]3C[C@](C)(C(=O)NCc4cccc(C)c4)CC[C@]3(C)CC[C@]12C`, in series [1], the CC50 at 48 h is 1 µM. This compound also gave a pIC50 in series [2] of 6.53. Moreover, the “Ratio CC50/IC50” value in series [3] is 3.4.

In the case of `C#CCNC(=O)[C@]1(C)CC[C@]2(C)CC[C@]3(C)C4=CC=C5C(=CC(=O)C(O)=C5C)[C@]4(C)CC[C@@]3(C)[C@@H]2C1`, the CC50 at 48 h in series [1] came out at 1.4 µM. In addition, the pIC50 in series [2] was 6.95. Further, the “Ratio CC50/IC50” value in series [3] was determined as 16.4.

Take `CC1=C(O)C(=O)C=C2C1=CC=C1[C@@]2(C)CC[C@@]2(C)[C@@H]3C[C@](C)(C(=O)N4CCCC4)CC[C@]3(C)CC[C@]12C`: the CC50 at 48 h in series [1] is 1.9 µM. This compound gave a pIC50 in series [2] of 6.49. In addition, the “Ratio CC50/IC50” value in series [3] is 3.4.

As to `CCCCOC(=O)[C@]1(C)CC[C@]2(C)CC[C@]3(C)C4=CC=C5C(=CC(=O)C(O)=C5C)[C@]4(C)CC[C@@]3(C)[C@@H]2C1`, the CC50 at 48 h in series [1] was 0.9 µM. The compound also showed a pIC50 in series [2] of 6.13. Moreover, the “Ratio CC50/IC50” value in series [3] was 1.2.

In the case of `CC1=C(O)C(=O)C=C2C1=CC=C1[C@@]2(C)CC[C@@]2(C)[C@@H]3C[C@](C)(C(=O)OCC4CCCCC4)CC[C@]3(C)CC[C@]12C`, the CC50 at 48 h in series [1] stood at 1.3 µM. In addition, the pIC50 in series [2] was 5.90. The “Ratio CC50/IC50” value in series [3] is listed as 1.

For `CC1=C(O)C(=O)C=C2C1=CC=C1[C@@]2(C)CC[C@@]2(C)[C@@H]3C[C@](C)(C(=O)OCc4ccccc4)CC[C@]3(C)CC[C@]12C`, the CC50 at 48 h in series [1] turned out to be 1.1 µM. This compound also gave a pIC50 in series [2] of 5.98. Moreover, in series [3], the “Ratio CC50/IC50” value is on record as 1.

`CC1=C(O)C(=O)C=C2C1=CC=C1[C@@]2(C)CC[C@@]2(C)[C@@H]3C[C@](C)(C(=O)O)CC[C@]3(C)CC[C@]12C` [CELASTROL]: in series [1], the CC50 at 48 h turned out to be 0.1 µM. This compound had a pIC50 in series [2] of 7.08. Besides, the “Ratio CC50/IC50” value in series [3] stood at 1.5.

As to `CC1=C(O)C(=O)C=C2C1=CC=C1[C@@]2(C)CC[C@@]2(C)[C@@H]3C[C@](C)(C(=O)On4nnc5ccccc54)CC[C@]3(C)CC[C@]12C`, in series [1], the CC50 at 48 h turned out to be 15.1 µM. Also, the pIC50 in series [2] was 5.73. The “Ratio CC50/IC50” value in series [3] is reported as 8.1.

Consider `CCCCNC(=O)[C@]1(C)CC[C@]2(C)CC[C@]3(C)C4=CC=C5C(=CC(=O)C(O)=C5C)[C@]4(C)CC[C@@]3(C)[C@@H]2C1`, for which, in series [1], the half-maximal cytotoxic concentration (CC50) at 48 h came to 1.2 µM. The pIC50 in series [2] is 7.20. Moreover, in series [3], the “Ratio CC50/IC50” value worked out at 19.3.

As for `CCOC(=O)[C@]1(C)CC[C@]2(C)CC[C@]3(C)C4=CC=C5C(=CC(=O)C(O)=C5C)[C@]4(C)CC[C@@]3(C)[C@@H]2C1`, in series [1], the CC50 at 48 h is 1.4 µM. Moreover, in series [2], the pIC50 was 6.09. Moreover, in series [3], the “Ratio CC50/IC50” value is reported as 1.3.

With `CC1=C(O)C(=O)C=C2C1=CC=C1[C@@]2(C)CC[C@@]2(C)[C@@H]3C[C@](C)(C(=O)OCCBr)CC[C@]3(C)CC[C@]12C`, the CC50 at 48 h in series [1] amounted to 1.1 µM. This compound also gave a pIC50 in series [2] of 6.14. Besides, the “Ratio CC50/IC50” value in series [3] was found to be 1.6.

For `CCCNC(=O)[C@]1(C)CC[C@]2(C)CC[C@]3(C)C4=CC=C5C(=CC(=O)C(O)=C5C)[C@]4(C)CC[C@@]3(C)[C@@H]2C1`, in series [1], the CC50 at 48 h came to 1.1 µM. Moreover, the pIC50 in series [2] was 7.19. The “Ratio CC50/IC50” value in series [3] was determined as 16.5.

For `CC1=C(O)C(=O)C=C2C1=CC=C1[C@@]2(C)CC[C@@]2(C)[C@@H]3C[C@](C)(C(=O)NC(C)C)CC[C@]3(C)CC[C@]12C`, the CC50 at 48 h in series [1] was 0.8 µM. In series [2], the pIC50 was 7.08. In addition, the “Ratio CC50/IC50” value in series [3] was 6.9.

The values above are taken from ChEMBL document CHEMBL4665764, “Synthesis and Biological Evaluation of Celastrol Derivatives as Potential Immunosuppressive Agents” (J Nat Prod, 2020).
